Measurements as given in ChEMBL document CHEMBL1201862, “PubChem BioAssay data set” (2004).
Calls of active or inactive are those of the source.

Legend:
[1] = Luminescence Cell-Based Dose Confirmation HTS to Identify Activators of 5'UTR Stem-Loop Driven Alpha-Synuclein mRNA Translation in H4 Neuroglioblastoma Cells. [Related pubchem assays: 1829 (Project Summary), 1814 (Primary HTS)]; type: functional
[2] = Luminescence Cell-Based Dose Response HTS to Identify Activators of Luciferase Translation or Activity in H4 […] Cells. [Related pubchem assays: 1829 (Project Summary), 1814 (Primary HTS)]; type: functional
H4 = experiment: Luminescence Cell-Based Dose Response HTS to Identify Activators of 5'UTR Stem-Loop Driven Prion Protein mRNA Translation in H4 Neuroglioblastoma Cells. [Related pubchem assays: 1829 (Project Summary), 1814 (Primary HTS)]; type: functional; conditions: Homo sapiens
CHO-K1 = experiment: (§1) Counterscreen for antagonists of the orexin 1 receptor (OX1R; HCRTR1): Homogeneous time resolved fluorescence (HTRF)-based cell-based dose response assay to identify antagonists of the parental CHO-K1 cell line. [Related pubchem assays (depositor defined):AID434989, AID435008, AID463079, AID485270, AID492963, AID492964, AID492965, AID493232, AID504699, AID504701]; type: functional; conditions: Cricetulus griseus
[3] = as §1, with “Fluorescence-based” for “Homogeneous time resolved fluorescence (HTRF)-based”, “cell-based high throughput” for “cell-based”, “CHO” for “CHO-K1”; type: functional
[4] = target: T1, Orexin/Hypocretin receptor type 1 (Homo sapiens, UniProt O43613); experiment: Homogeneous Time Resolved Fluorescence (HTRF)-based cell-based high throughput dose response assay for antagonists of the orexin 1 receptor (OX1R; HCRTR1). [Related pubchem assays (depositor defined):AID434989, AID435008, AID463079, AID485270, AID492963, AID492964, AID492965, AID493232, AID504717, AID504718]; type: functional
T1 sequence (O43613 whole entry): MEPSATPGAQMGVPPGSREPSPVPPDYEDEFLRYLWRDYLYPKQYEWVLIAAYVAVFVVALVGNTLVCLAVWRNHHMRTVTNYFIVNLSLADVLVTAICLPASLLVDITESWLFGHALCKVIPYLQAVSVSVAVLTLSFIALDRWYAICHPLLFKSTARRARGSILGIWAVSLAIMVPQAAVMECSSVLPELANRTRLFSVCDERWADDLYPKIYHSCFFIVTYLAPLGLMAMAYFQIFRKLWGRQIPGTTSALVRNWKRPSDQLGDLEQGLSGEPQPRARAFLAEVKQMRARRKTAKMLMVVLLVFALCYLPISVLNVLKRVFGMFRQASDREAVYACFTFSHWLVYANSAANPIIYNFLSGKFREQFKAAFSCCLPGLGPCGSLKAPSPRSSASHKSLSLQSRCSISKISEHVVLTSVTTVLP

[5] = target: T1, Orexin/Hypocretin receptor type 1; experiment: Fluorescence-based cell-based high throughput dose response assay for antagonists of the orexin 1 receptor (OX1R; HCRTR1). [Related pubchem assays (depositor defined):AID434989, AID435008, AID463079, AID485270, AID492963, AID492964, AID492965, AID493232, AID504717, AID504718]; type: functional
Orexin receptor type 2 [6] = target: T2, Orexin receptor type 2 (Homo sapiens, UniProt O43614); experiment: Counterscreen assay for antagonists of the orexin 1 receptor (OX1R; HCRTR1): Fluorescence-based cell-based dose response assay for antagonists of the orexin 2 receptor (OX2R; HCRTR2), run by assay provider.; type: functional
T2 sequence (O43614 whole entry): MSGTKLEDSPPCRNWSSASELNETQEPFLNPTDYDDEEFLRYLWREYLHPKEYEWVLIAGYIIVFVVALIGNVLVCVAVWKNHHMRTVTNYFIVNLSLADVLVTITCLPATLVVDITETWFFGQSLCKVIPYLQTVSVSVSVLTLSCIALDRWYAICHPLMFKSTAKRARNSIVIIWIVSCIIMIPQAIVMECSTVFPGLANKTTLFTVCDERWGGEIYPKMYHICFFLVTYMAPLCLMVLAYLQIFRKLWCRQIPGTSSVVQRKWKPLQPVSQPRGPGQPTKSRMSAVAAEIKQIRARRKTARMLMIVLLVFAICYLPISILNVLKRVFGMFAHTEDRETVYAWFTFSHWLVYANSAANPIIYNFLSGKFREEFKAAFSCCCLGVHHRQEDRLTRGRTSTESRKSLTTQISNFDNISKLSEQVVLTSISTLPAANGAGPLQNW

Orexin receptor type 2 [7] = target: T2, Orexin receptor type 2; experiment: Counterscreen assay for antagonists of the orexin 1 receptor (OX1R; HCRTR1): Homogeneous Time Resolved Fluorescence (HTRF)-based cell-based dose response assay for antagonists of the orexin 2 receptor (OX2R; HCRTR2), run by assay provider.; type: functional
[8] = target: T3, Hepatocyte nuclear factor 4-alpha (Homo sapiens, UniProt P41235); type: functional, cell-based;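 note: biochemical luminescence-based dose-response counterscreen measuring inhibition of HNF4 dimerization, run alongside a screen for blockers of ABHD5–perilipin-5 interaction; split luciferase complementation of HNF4 fusion proteins in cell lysate measuring dimerization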
T3 sequence (P41235 whole entry): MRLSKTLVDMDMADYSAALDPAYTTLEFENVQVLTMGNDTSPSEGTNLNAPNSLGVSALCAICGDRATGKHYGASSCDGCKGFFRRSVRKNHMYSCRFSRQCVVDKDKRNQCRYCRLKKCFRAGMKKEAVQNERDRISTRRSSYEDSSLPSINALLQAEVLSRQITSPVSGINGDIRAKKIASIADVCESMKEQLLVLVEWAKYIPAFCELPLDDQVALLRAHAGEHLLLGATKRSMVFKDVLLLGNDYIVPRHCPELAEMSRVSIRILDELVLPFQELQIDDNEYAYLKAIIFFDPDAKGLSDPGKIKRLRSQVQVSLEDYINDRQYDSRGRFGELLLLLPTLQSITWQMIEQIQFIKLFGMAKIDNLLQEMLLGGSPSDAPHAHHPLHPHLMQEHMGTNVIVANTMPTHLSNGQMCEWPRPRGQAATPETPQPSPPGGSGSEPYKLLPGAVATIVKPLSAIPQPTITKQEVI

[9] = target: T4, DNA repair and recombination protein RAD54-like (Homo sapiens, UniProt Q92698); experiment: inhibitors of human RAD54 branch migration, confirmation, biochemical, fluorescence, cherry-picked samples, dose series (AID 651657); type: functional
T4 sequence (Q92698 whole entry): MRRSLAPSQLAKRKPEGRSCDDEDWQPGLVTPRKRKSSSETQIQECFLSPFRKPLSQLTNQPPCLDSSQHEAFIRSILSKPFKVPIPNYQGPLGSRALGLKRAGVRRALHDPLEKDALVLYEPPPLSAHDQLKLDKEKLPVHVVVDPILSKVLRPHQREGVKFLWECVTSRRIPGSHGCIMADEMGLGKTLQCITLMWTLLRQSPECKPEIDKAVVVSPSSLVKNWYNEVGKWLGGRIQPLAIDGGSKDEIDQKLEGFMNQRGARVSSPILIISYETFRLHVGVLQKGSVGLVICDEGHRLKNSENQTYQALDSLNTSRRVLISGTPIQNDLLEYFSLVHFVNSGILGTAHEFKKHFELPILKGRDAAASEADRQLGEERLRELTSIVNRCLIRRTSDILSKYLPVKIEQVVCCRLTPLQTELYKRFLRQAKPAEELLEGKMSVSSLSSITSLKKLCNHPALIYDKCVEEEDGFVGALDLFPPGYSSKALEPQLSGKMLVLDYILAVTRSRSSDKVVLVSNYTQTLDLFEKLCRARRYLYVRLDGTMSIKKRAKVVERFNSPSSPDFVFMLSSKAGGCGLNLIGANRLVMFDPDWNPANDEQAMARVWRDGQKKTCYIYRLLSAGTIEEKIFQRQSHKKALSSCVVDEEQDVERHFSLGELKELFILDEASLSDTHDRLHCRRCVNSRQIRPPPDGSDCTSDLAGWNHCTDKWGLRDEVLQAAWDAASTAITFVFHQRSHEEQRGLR

[10] = target: T5, DNA repair protein RAD52 homolog (Homo sapiens, UniProt P43351); type: functional, biochemical
T5 sequence (P43351 whole entry): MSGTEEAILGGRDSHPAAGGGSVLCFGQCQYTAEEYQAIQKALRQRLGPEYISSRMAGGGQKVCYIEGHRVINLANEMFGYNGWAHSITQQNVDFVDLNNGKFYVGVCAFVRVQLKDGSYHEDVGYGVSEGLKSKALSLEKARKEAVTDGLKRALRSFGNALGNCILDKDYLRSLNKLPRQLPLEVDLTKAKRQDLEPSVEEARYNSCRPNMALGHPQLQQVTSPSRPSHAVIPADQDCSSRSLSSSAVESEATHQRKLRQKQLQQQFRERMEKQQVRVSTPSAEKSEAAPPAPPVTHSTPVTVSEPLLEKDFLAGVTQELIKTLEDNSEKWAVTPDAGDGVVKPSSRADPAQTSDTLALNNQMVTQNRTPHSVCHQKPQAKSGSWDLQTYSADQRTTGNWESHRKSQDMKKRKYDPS

[11] = target: T6, Sentrin-specific protease 1 (Homo sapiens, UniProt Q9P0U3); experiment: potency of human SENP1 inhibitors, dose response, biochemical, kinetic FRET (AID 651697); type: functional; conditions: read-out: IC50_Mean
T6 sequence (Q9P0U3 whole entry): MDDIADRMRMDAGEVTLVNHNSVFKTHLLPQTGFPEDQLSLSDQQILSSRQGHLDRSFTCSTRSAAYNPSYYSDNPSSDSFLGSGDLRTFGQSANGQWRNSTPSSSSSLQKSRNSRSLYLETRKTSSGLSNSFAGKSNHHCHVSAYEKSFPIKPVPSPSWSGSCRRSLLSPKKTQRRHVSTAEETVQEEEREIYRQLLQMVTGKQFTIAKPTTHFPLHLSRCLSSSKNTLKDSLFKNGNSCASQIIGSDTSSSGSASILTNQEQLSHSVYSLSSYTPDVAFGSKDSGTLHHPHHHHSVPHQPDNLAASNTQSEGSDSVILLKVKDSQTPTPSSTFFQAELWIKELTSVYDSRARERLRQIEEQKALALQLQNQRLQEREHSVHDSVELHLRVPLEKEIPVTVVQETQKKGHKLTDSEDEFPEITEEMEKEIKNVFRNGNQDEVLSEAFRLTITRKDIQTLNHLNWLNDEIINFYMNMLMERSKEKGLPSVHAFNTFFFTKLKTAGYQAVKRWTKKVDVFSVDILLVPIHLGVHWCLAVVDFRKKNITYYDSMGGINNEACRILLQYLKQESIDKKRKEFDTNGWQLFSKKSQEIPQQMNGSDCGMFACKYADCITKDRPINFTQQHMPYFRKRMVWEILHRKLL

[12] = target: T6, Sentrin-specific protease 1; experiment: Dose response confirmation of small molecule inhibitors of the catalytic domain of the SUMO protease, SENP1 in a FRET assay.; type: functional; conditions: read-out: IC50_Mean
Estrogen receptor = target: T7, Estrogen receptor (Homo sapiens, UniProt P03372);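 note: potency for inhibiting coactivator peptide recruitment to the receptor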
T7 sequence (P03372 whole entry): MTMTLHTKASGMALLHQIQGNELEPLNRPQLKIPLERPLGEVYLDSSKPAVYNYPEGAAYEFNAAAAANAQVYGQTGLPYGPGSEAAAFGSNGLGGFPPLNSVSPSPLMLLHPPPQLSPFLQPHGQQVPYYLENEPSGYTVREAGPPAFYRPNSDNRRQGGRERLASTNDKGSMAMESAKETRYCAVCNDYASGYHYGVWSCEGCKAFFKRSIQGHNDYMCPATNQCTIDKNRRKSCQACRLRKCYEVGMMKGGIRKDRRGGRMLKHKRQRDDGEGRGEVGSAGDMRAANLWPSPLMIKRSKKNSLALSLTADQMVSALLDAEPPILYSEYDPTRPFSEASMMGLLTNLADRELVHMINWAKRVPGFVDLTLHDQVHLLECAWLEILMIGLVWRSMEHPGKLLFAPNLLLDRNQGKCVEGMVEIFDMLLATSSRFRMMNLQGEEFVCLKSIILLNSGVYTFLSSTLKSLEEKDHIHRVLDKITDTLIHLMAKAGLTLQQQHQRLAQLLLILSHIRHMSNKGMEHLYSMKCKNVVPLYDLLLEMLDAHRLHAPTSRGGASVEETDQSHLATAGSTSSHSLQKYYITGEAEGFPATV

For N#CC(=C1SC=CS1)c1nc(-c2ccccc2)cs1, the EC50 [1] was 0.204 µM (active), the EC50 [2] was 53.4 µM (active) and the EC50 (H4) was > 120 µM (not active). The IC50 (CHO-K1) was > 66.2 µM (inactive), the IC50 [3] was > 49.7 µM (inactive) and the IC50 [4] was 0.749 µM (active). The IC50 [5] was 1.02 µM (active), the IC50 (Orexin receptor type 2 [6]) was 6.66 µM (active) and the IC50 (Orexin receptor type 2 [7]) was 4.31 µM (active).
With COc1ccc(C(C(=O)NC(C)(C)C)n2c(=O)c(-c3ccco3)nc3ccccc32)cc1 (stereo not given) the IC50 [8] was 1.78 µM (active).
With N#Cc1ccc(C(C(=O)NCc2ccccc2)n2c(=O)c(-c3ccco3)nc3ccccc32)cc1 (stereo not given) the IC50 [8] was 1.3 µM (active).
For CC(=O)Nc1cc(-c2cccc(C(=O)NCCN(C)C)c2)cn2c(-c3ccccc3)cnc12, the AC50 [9] was 33.5 µM (active) and the AC50 [10] was 4.01 µM (active).
In the case of N#Cc1ccc(-c2nc3ccc(Br)cn3c2Cc2ccccc2C(F)(F)F)cc1, the IC50 [11] is reported as 13.1 µM (active) and the IC50 [12] is reported as 11.4 µM (active).
In the case of COC(=O)c1c(NC(=O)c2ccc(S(=O)(=O)N3CCOCC3)cc2)sc2c1CCN(C(C)C)C2, the AC50 [9] is reported as 14.7 µM (active).
In the case of COc1cccc(-c2nc3nc(C)cc(C)n3c2Nc2c(C)cccc2C)c1, the IC50 [11] is reported as 28.5 µM (inactive) and the IC50 [12] is reported as 15.4 µM (active).
With CCn1c(SCC(=O)Nc2ccc3c(c2)c2ccccc2n3CC)nnc1-c1cnccn1 the IC50 (Estrogen receptor) was > 50 µM (not active), the IC50 (CHO-K1) was > 66.3 µM (inactive) and the IC50 [3] was > 49.8 µM (inactive). For the same compound, the IC50 [4] was 0.0548 µM (active), the IC50 [5] was 2.18 µM (active) and the IC50 (Orexin receptor type 2 [6]) was 38.9 µM (inactive). The IC50 (Orexin receptor type 2 [7]) was 23.1 µM (inactive).
